Several values for one entry are separate records, joined by “and”; a condition that tells them apart may be missing. Equal entries are not always repeated.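 Five compound concentrations were applied to cells in 96-well plates for 48 hours; endpoints were derived by simple linear interpolation of the resulting dose-response curve. GI50: concentration for 50% inhibition of growth. TGI: concentration producing complete growth inhibition.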
Key:
Test in all cases: growth of human tumour cells (NCI), 48 h
NCI-H522 lung = test system: NCI-H522 lung
SF-295 CNS = test system: SF-295 CNS
M14 melanoma = test system: M14 melanoma
HS 578T breast = test system: HS 578T breast
SNB-75 CNS = test system: SNB-75 CNS
HCC-2998 colon = test system: HCC-2998 colon
LOX IMVI melanoma = test system: LOX IMVI melanoma
MALME-3M melanoma = test system: MALME-3M melanoma
NCI-H460 lung = test system: NCI-H460 lung
A498 renal = test system: A498 renal

CN1CCN(Cc2ccc(NC(=O)c3cncc(C#Cc4ncc5ccccn45)c3)cc2C(F)(F)F)CC1
GI50 (NCI-H522 lung): 1.43 µM
TGI (NCI-H522 lung): 5.58 µM
GI50 (SF-295 CNS): 1.35 µM
TGI (SF-295 CNS): 4.75 µM
GI50 (M14 melanoma): 1.01 µM
TGI (M14 melanoma): 3.98 µM
GI50 (HS 578T breast): 0.688 µM
TGI (HS 578T breast): 3.61 µM
GI50 (SNB-75 CNS): 2.73 µM
TGI (SNB-75 CNS): 5.77 µM
GI50 (HCC-2998 colon): 3.37 µM
TGI (HCC-2998 colon): 6.99 µM
GI50 (LOX IMVI melanoma): 1.27 µM
TGI (LOX IMVI melanoma): 4.55 µM
GI50 (MALME-3M melanoma): 0.772 µM
TGI (MALME-3M melanoma): 3.6 µM
GI50 (NCI-H460 lung): 1.02 µM
TGI (NCI-H460 lung): 3.86 µM
GI50 (A498 renal): 2.83 µM
TGI (A498 renal): 5.96 µM

COn1cc(C(=O)N=C(SC)SC)c2ccccc21
GI50 (NCI-H522 lung): 13.1 µM
TGI (NCI-H522 lung): 42 µM
GI50 (SF-295 CNS): 16.8 µM
TGI (SF-295 CNS): 55.4 µM
GI50 (M14 melanoma): 18.4 µM
TGI (M14 melanoma): 48.1 µM
GI50 (HS 578T breast): 16.7 µM
TGI (HS 578T breast): 54.3 µM
GI50 (SNB-75 CNS): 68.7 µM
TGI (SNB-75 CNS): > 100 µM
GI50 (HCC-2998 colon): 19.8 µM
TGI (HCC-2998 colon): 36.8 µM
GI50 (LOX IMVI melanoma): 17.6 µM
TGI (LOX IMVI melanoma): 50.6 µM
GI50 (NCI-H460 lung): > 100 µM
TGI (NCI-H460 lung): > 100 µM

CC(=O)N1c2ccc(-c3ccc(C(=O)O)cc3)cc2[C@H](Nc2ccc(Cl)cc2)C[C@@H]1C
GI50 (NCI-H522 lung): 0.0637 µM
TGI (NCI-H522 lung): 11.5 µM
GI50 (SF-295 CNS): 0.477 µM
TGI (SF-295 CNS): 18.1 µM
GI50 (M14 melanoma): 0.096 µM
TGI (M14 melanoma): 23.2 µM
GI50 (HS 578T breast): 0.0549 µM
TGI (HS 578T breast): > 57.9 µM
GI50 (SNB-75 CNS): < 0.0165 µM
TGI (SNB-75 CNS): > 100 µM
GI50 (HCC-2998 colon): 0.371 µM
TGI (HCC-2998 colon): 7.81 µM
GI50 (LOX IMVI melanoma): 0.0628 µM
TGI (LOX IMVI melanoma): 3.48 µM
GI50 (MALME-3M melanoma): 0.168 µM
TGI (MALME-3M melanoma): 3.64 µM
GI50 (NCI-H460 lung): 1.61 µM
TGI (NCI-H460 lung): > 55.6 µM
GI50 (A498 renal): 0.0667 µM
TGI (A498 renal): 1.71 µM

COc1ccc(-c2cc3c(N)ncnc3o2)cc1
GI50 (NCI-H522 lung): > 25 µM
TGI (NCI-H522 lung): > 25 µM
GI50 (SF-295 CNS): > 25 µM
TGI (SF-295 CNS): > 25 µM
GI50 (M14 melanoma): > 19.1 µM
TGI (M14 melanoma): > 25 µM
GI50 (HS 578T breast): 5.85 µM
TGI (HS 578T breast): > 25 µM
GI50 (SNB-75 CNS): 24.9 µM
TGI (SNB-75 CNS): > 25 µM
GI50 (HCC-2998 colon): > 25 µM
TGI (HCC-2998 colon): > 25 µM
GI50 (LOX IMVI melanoma): > 25 µM
TGI (LOX IMVI melanoma): > 25 µM
GI50 (MALME-3M melanoma): 15.5 µM
TGI (MALME-3M melanoma): > 25 µM
GI50 (NCI-H460 lung): > 25 µM
TGI (NCI-H460 lung): > 25 µM
GI50 (A498 renal): 8.14 µM
TGI (A498 renal): > 25 µM

CCC(=O)OCN1C(=O)C=CC1=O
GI50 (NCI-H522 lung): 2.27 µM
TGI (NCI-H522 lung): 4.64 µM and 4.58 µM
GI50 (SF-295 CNS): 18.4 µM
TGI (SF-295 CNS): 35.2 µM and > 66.6 µM
TGI (M14 melanoma): 37.5 µM and 32.3 µM
GI50 (HS 578T breast): 27.8 µM
TGI (HS 578T breast): 73.3 µM and 36.5 µM
TGI (HCC-2998 colon): 34.1 µM and 33.6 µM
TGI (LOX IMVI melanoma): 34.3 µM and 35.1 µM
GI50 (MALME-3M melanoma): 16 µM
TGI (MALME-3M melanoma): 31.5 µM and 27.6 µM
GI50 (NCI-H460 lung): 21.3 µM
TGI (NCI-H460 lung): 44.2 µM and 33.7 µM
GI50 (A498 renal): > 100 µM
TGI (A498 renal): > 100 µM

CC(C)Cn1cnc2c(SCc3ccccn3)nc(N)nc21
TGI (NCI-H522 lung): > 100 µM
TGI (SF-295 CNS): > 100 µM
TGI (M14 melanoma): > 100 µM
TGI (HS 578T breast): > 100 µM
TGI (SNB-75 CNS): > 100 µM
TGI (HCC-2998 colon): > 100 µM
TGI (LOX IMVI melanoma): > 100 µM
TGI (MALME-3M melanoma): > 100 µM
TGI (NCI-H460 lung): > 100 µM
TGI (A498 renal): > 100 µM

O=C(O)CSc1nnc2c3ccccc3c3ccccc3c2n1
TGI (NCI-H522 lung): > 100 µM
TGI (SF-295 CNS): > 100 µM
TGI (M14 melanoma): > 100 µM
TGI (HS 578T breast): > 100 µM
TGI (SNB-75 CNS): > 100 µM
TGI (HCC-2998 colon): > 100 µM
TGI (LOX IMVI melanoma): > 100 µM
TGI (MALME-3M melanoma): > 100 µM
TGI (NCI-H460 lung): > 100 µM
TGI (A498 renal): > 100 µM

CCC(=O)Oc1ccc(/C=N/NC(N)=S)nc1
GI50 (NCI-H522 lung): 4.58 µM
TGI (NCI-H522 lung): 76.5 µM
GI50 (SF-295 CNS): 12.3 µM
TGI (SF-295 CNS): > 100 µM
GI50 (M14 melanoma): 2.01 µM
TGI (M14 melanoma): 5.59 µM
GI50 (HS 578T breast): 30.9 µM
TGI (HS 578T breast): > 100 µM
GI50 (SNB-75 CNS): 6.13 µM
TGI (SNB-75 CNS): > 100 µM
GI50 (HCC-2998 colon): 13.6 µM
TGI (HCC-2998 colon): > 100 µM
GI50 (LOX IMVI melanoma): 2.91 µM
TGI (LOX IMVI melanoma): > 100 µM
GI50 (MALME-3M melanoma): 6.86 µM
TGI (MALME-3M melanoma): > 100 µM
GI50 (NCI-H460 lung): 4.04 µM
TGI (NCI-H460 lung): 46.6 µM
GI50 (A498 renal): 23.3 µM
TGI (A498 renal): > 100 µM

CC1CC2(C)CC(=O)C1C1C(=O)N(CCN3CCOCC3)C(=O)C12 (stereo not given)
GI50 (NCI-H522 lung): > 100 µM
TGI (NCI-H522 lung): > 100 µM
GI50 (SF-295 CNS): > 100 µM
TGI (SF-295 CNS): > 100 µM
GI50 (M14 melanoma): > 100 µM
TGI (M14 melanoma): > 100 µM
GI50 (HS 578T breast): > 100 µM
TGI (HS 578T breast): > 100 µM
GI50 (SNB-75 CNS): > 100 µM
TGI (SNB-75 CNS): > 100 µM
GI50 (HCC-2998 colon): > 100 µM
TGI (HCC-2998 colon): > 100 µM
GI50 (LOX IMVI melanoma): > 100 µM
TGI (LOX IMVI melanoma): > 100 µM
GI50 (MALME-3M melanoma): > 100 µM
TGI (MALME-3M melanoma): > 100 µM
GI50 (A498 renal): > 100 µM
TGI (A498 renal): > 100 µM

O=C(CN1CCN(c2ccccn2)CC1)Nc1ccc(Cl)cc1C(=O)c1ccccc1Cl
GI50 (NCI-H522 lung): 16.6 µM
TGI (NCI-H522 lung): > 100 µM
GI50 (SF-295 CNS): 30.5 µM
TGI (SF-295 CNS): > 100 µM
GI50 (M14 melanoma): 50.9 µM
TGI (M14 melanoma): > 100 µM
GI50 (HS 578T breast): > 100 µM
TGI (HS 578T breast): > 100 µM
GI50 (SNB-75 CNS): > 100 µM
TGI (SNB-75 CNS): > 100 µM
GI50 (HCC-2998 colon): > 100 µM
TGI (HCC-2998 colon): > 100 µM
GI50 (LOX IMVI melanoma): 41.6 µM
TGI (LOX IMVI melanoma): > 100 µM
GI50 (MALME-3M melanoma): > 100 µM
TGI (MALME-3M melanoma): > 100 µM
GI50 (NCI-H460 lung): 93.6 µM
TGI (NCI-H460 lung): > 100 µM
GI50 (A498 renal): 24.5 µM
TGI (A498 renal): > 100 µM

COc1ccc(CNC(=O)c2c(C)n([O-])c3cc(F)c(F)cc3[n+]2=O)cc1
GI50 (NCI-H522 lung): 11.5 µM
TGI (NCI-H522 lung): 27 µM
GI50 (M14 melanoma): 12 µM
TGI (M14 melanoma): 24.4 µM
GI50 (HS 578T breast): 2.11 µM
TGI (HS 578T breast): 5.96 µM
GI50 (SNB-75 CNS): 0.461 µM
TGI (SNB-75 CNS): 5.58 µM
GI50 (HCC-2998 colon): 2.07 µM
TGI (HCC-2998 colon): 5.77 µM
GI50 (LOX IMVI melanoma): 5.22 µM
TGI (LOX IMVI melanoma): 17.5 µM
GI50 (MALME-3M melanoma): 11.2 µM
TGI (MALME-3M melanoma): 26.8 µM
GI50 (NCI-H460 lung): 13.1 µM
TGI (NCI-H460 lung): 25.9 µM
GI50 (A498 renal): 16.1 µM
TGI (A498 renal): 29.6 µM

CCCNC(=O)Nc1ccc2c(c1)Cc1cc(N(CCCl)CCCl)ccc1-2
TGI (NCI-H522 lung): 41 µM
TGI (SF-295 CNS): 44.2 µM
TGI (M14 melanoma): > 100 µM
TGI (HS 578T breast): 61.4 µM
TGI (HCC-2998 colon): 67.6 µM
TGI (LOX IMVI melanoma): > 100 µM
TGI (MALME-3M melanoma): > 100 µM
TGI (NCI-H460 lung): > 100 µM
TGI (A498 renal): 33.4 µM

C=C1C(OCCO)OC2O[C@]3(C)CCC4[C@H](C)CCC1C24OO3 (stereo not given in full)
GI50 (NCI-H522 lung): 4.93 µM
TGI (NCI-H522 lung): 19.2 µM
GI50 (SF-295 CNS): > 100 µM
TGI (SF-295 CNS): > 100 µM
GI50 (M14 melanoma): 78.4 µM
TGI (M14 melanoma): > 100 µM
GI50 (HS 578T breast): 19.9 µM
TGI (HS 578T breast): > 100 µM
GI50 (HCC-2998 colon): > 100 µM
TGI (HCC-2998 colon): > 100 µM
GI50 (LOX IMVI melanoma): 4.15 µM
TGI (LOX IMVI melanoma): 19.2 µM
GI50 (MALME-3M melanoma): 52.7 µM
TGI (MALME-3M melanoma): > 100 µM
GI50 (NCI-H460 lung): > 100 µM
TGI (NCI-H460 lung): > 100 µM
GI50 (A498 renal): > 100 µM
TGI (A498 renal): > 100 µM

COc1ccc(-c2cc(=O)c3cccnc3[nH]2)cc1
TGI (NCI-H522 lung): > 100 µM
GI50 (SF-295 CNS): 65 µM
TGI (SF-295 CNS): > 100 µM
TGI (M14 melanoma): 95.6 µM
TGI (HS 578T breast): > 100 µM
TGI (HCC-2998 colon): > 100 µM
TGI (LOX IMVI melanoma): > 100 µM
TGI (MALME-3M melanoma): > 100 µM
GI50 (NCI-H460 lung): 26.4 µM
TGI (NCI-H460 lung): 91.4 µM
TGI (A498 renal): > 100 µM

Source: PubChem BioAssay (NCI)
